The values that follow are results of earlier work, collected in US10213389B2 (priority 2005, dated 2019).

“1,4:3,6-dianhydro-D-glucitol dinitrate [Isosorbide dinitrate]”: the “solubility in acetone, chloroform, alcohol and ether” value (acetone, chloroform, alcohol, ether) is listed as “freely soluble”. Also, the solubility in water (water, described as sparingly soluble) is 1.0 g/900 ml.
